Results: patent publication US8076363B2, “Isothiazolone-containing preservative with improved effectiveness” (Air Liquide Sante (International), priority 2005, dated 2011)

What was measured:
[1] = system: mixed suspension of test germs (bacteria, yeasts, fungi); test: Preserving effect under repeated inoculation in humectant formulation 6940; assay type: cell-based; parameters: key: −=no growth; ++=moderate growth; +++=massive growth
Experimental: B) Humectant Formulation 6940
In accordance with Seppic formulation procedure, without preservative.
(§1) Using the described method, the effectiveness of chemical preservatives is tested with regard to the pack preservation for cosmetic formulations. For this purpose, in various experimental batches, the preservatives to be investigated are added to the unpreserved samples in various concentrations. A continuous germ burden is achieved by periodically inoculating the experimental batches. In parallel to the inoculation, streaks of each of the individual batches are in each case made immediately beforehand. Assessment is made by reference to the microbial growth of the streaks.
The bacteria are streaked uniformly over the entire surface of a CS nutrient medium using a sterile glass rod and incubated for 24 h at 30±1° C. The yeast C. albicans is streaked using a sterile glass rod on a Sabouraud nutrient medium and incubated for 48 h at 30±1° C.
The fungi A. niger and P. funiculosum are streaked using a sterile glass rod on one (A. niger) or two (P. funiculosum) Sabouraud plates (comprising 100 μg/ml of gentamycin and 50 μg/ml of chloramphenicol) and incubated for 7 to 14 days at 25±2° C.
To prepare the mixed suspensions, the bacteria, per strain one plate, are rinsed off with 5 ml of a sterile 0.85% NaCl solution per CSA plate, (sterile) filtered through a sterile glass funnel containing glass wool and made up to 150 ml with 0.85% NaCl solution. This bacteria suspension has a titre of ˜10^10 CFU/ml.
The yeast C. albicans is likewise rinsed off with 10 ml of sterile 0.85% NaCl solution from a Sabouraud plate and (sterile) filtered through a sterile glass funnel containing glass wool. 10 ml of each of the fungi suspensions (A. niger and P. funiculosum) prepared as described above are added to this suspension. 3 ml of the bacteria suspension prepared as described above (titre ˜10^10 CFU/ml) are added. The resulting mixed suspension is made to 150 ml with sterile 0.85% NaCl solution.
The bacteria titre of the mixed suspension is ˜10^8 CFU/ml. The titre for C. albicans in the mixed suspension is ˜10^8 CFU/ml. The titre for A. niger and P. funiculosum in the mixed suspension is ˜10^6 CFU/ml.
In separate batches, 25 or 50 g of the material to be preserved are in each case admixed with varying concentrations of the preservative to be investigated. The growth control used in each case is an unpreserved product sample.
The test batches are streaked onto CS and Sabouraud nutrient media once per week, the first streaking being carried out directly prior to reinoculation; these batches are then inoculated with the mixed suspension (in the case of 25 g samples with 0.1 ml, in the case of 50 g samples with 0.2 ml). The inoculated samples are incubated at 25° C.±2° C. over the entire experimentation period.
The microbial growth of the streaks incubated at 25° C.±2° C. is assessed after 3 to 4 days. To be on the safe side, negative streaks are observed for a further 2 days and reassessed. The preserving effect of the individual product concentrations is assessed in a semiquantitative method by means of the growth of the individual streaks according to the grading from “−” via “+” to “+++”. The test is usually carried out over 6 inoculation cycles or terminated after massive growth (+++) on two occasions.
(§2) If even after five successive inoculation cycles growth can be detected neither in the preserved samples nor in the unpreserved product sample (blank value), then the inoculation in the sixth inoculation cycle is carried out with five times the amount of the mixed suspension (0.5 ml in the case of 25 g samples, 1 ml in the case of 50 g samples).
A preservative is considered good if it exists under the laboratory conditions given above for a period of 6 weeks without germ infestation of the sample batches, i.e. even after the sixth inoculation, no microbial growth can be detected.

[2] = system: mixed suspension of test germs (bacteria, yeasts, fungi); test: Preserving effect under repeated inoculation in the standard gel; assay type: cell-based; parameters: key: −=no growth; −=slight growth; ++=moderate growth; +++=massive growth; conditions: preservative 0.1%
Experimental: CARBOPOL is dispersed in glycerol. In batches, the water and then NaOH are added thereto. The gel immediately becomes thick.
as §1, with “streaks. […]” for “streaks.”
The microbial growth of the streaks incubated at 25° C.±2° C. is assessed after 3 to 4 days. […] The preserving effect of the individual product concentrations is assessed in a semiquantitative method by means of the growth of the individual streaks according to the grading from “−” via “+” to “+++”. […]
as §2, with “samples). […]” for “samples).”

CCCCC(CC)COCC(O)CO (centres unmarked) [SENSIVA, 1-(2-ethylhexyl) glycerol ether]
microbial growth of the streaks ([1]; formulation 6940, preservative 0.1%, 4 days): − | microbial growth of the streaks ([1]; formulation 6940, preservative 0.1%, 10 days): +++ | microbial growth of the streaks ([1]; formulation 6940, preservative 0.1%, 17 days): +++ | microbial growth of the streaks ([1]; formulation 6940, preservative 0.2%, 4 days): − | microbial growth of the streaks ([1]; formulation 6940, preservative 0.2%, 10 days): +++ | microbial growth of the streaks ([1]; formulation 6940, preservative 0.2%, 17 days): +++ | microbial growth of the streaks ([1]; formulation 6940, preservative 0.3%, 4 days): − | microbial growth of the streaks ([1]; formulation 6940, preservative 0.3%, 10 days): +++ | microbial growth of the streaks ([1]; formulation 6940, preservative 0.3%, 17 days): +++ | microbial growth of the streaks ([2]; 10 days): +++ | microbial growth of the streaks ([2]; 17 days): +++
